Consider nine compounds from PMC6261607, “Novel high–throughput myofibroblast assays identify agonists with therapeutic potential in pulmonary fibrosis that act via EP2 and EP4 receptors” (PLoS ONE, 2018).

Experiment [1] deals with normal human lung fibroblasts (NHLF). Nature of the experiment: Phenotypic high-content assay (HCA) of TGF–β1–induced fibroblast–to–myofibroblast differentiation. The class given is cell-based. As to conditions: for IC50: 5 ng/ml TGF–β1 for 48 h, compound added with TGF–β1, mean ± SD, read-out: HCA IC50; for inhibition at 10 µM: read-out: Effect HCA at 10 µM [% inhibition], 10 µM compound, 5 ng/ml TGF–β1, 48 h. The method, boiled down: (§1)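 NHLF starved 24 h in serum-free basal medium with 0.1% BSA, then given compounds together with 5 ng/ml TGF-β1 for 48 h (0.6% DMSO). Methanol-fixed cells imaged for DAPI, α-SMA and FN; an SVM trained on ±TGF-β1 controls classified each cell, giving per-well % myofibroblast differentiation and nuclear counts.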

The test system is the same in experiment [2]. The experiment can be described thus: Nuclear count in the HCA, standard assay. The experiment is classed as cell-based. As to conditions: standard HCA, NHLF, 5 ng/ml TGF–β1, 48 h, read-out: Nuclear count IC50. In outline: as §1
The subject of experiment [3] is α–SMA protein in NHLF cells. The experiment can be described thus: RapidFire MS/MS quantification of α–SMA (IPQA), standard assay. The class given is cell-based, human. The method, boiled down: (§2)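 Primary normal human lung fibroblasts starved 32 h in 0.1% faf BSA medium, then treated with compound dilutions plus 5 ng/ml TGF-β1. Lysates denatured in urea/thiourea, reduced, alkylated, trypsin-digested; surrogate peptides quantified by RapidFire LC-MS/MS in MRM mode, peak areas normalized to tubulin peptide.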

For experiment [4], the system named is COL1 protein in NHLF cells. The experiment can be described thus: RapidFire MS/MS quantification of COL1 (IPQA), standard assay. The class given is cell-based, human. The method, boiled down:
as §2

The test system of experiment [5] is α–SMA protein in TGF–β1–induced NHLF myofibroblasts. Nature of the experiment: MS/MS α–SMA, NHLF myofibroblast reversal assay. The experiment is classed as cell-based, human. As to conditions: Homo sapiens. As to the method: (§3) Cell culture medium was removed and cells were lysed on ice by adding 5 μl / well of pre–cooled protein extraction buffer containing 10 mM Tris–HCl (pH 8.0), 6 M urea and 2 M thiourea and shaking on ice on a plate shaker at 600 rpm for 30 min.
(§4) Cell lysate was transferred to a 96–well polypropylene–PCR–plate. 15 μl / well denaturation buffer (6 M urea, 50 mM ammonium bicarbonate) and 2 μl / well of 50 mM TCEP were added and samples were denatured for 1 h at 60°C using the Veriti 96–well Fast Thermal Cycler System (Applied Biosystem) with a heated lid. Plates were allowed to cool to RT. Subsequently, 2 μl of 100 mM iodoacetamide were added per well to derivatize cysteine residues. Plates were then sealed and vortexed for 2 min in the dark and incubated for 30 min at 37°C in a thermal cycler with a heated lid. 90 μl of 50 mM ammonium bicarbonate pH 7.8 were added, followed by the addition of 10 μl of trypsin at 0.02 μg / ml. Samples were trypsin–digested overnight at 37°C in a thermal cycler with heated lid. […] Samples were desalted under vacuum using an Oasis HLB 96–well (30 μm particle size, 5 mg sorbent / well) reverse phase cartridge according to the manufacturer’s instructions and eluted with 170 μl of 90% acetonitrile, 0.1% formic acid. Samples were dried down with a flow of nitrogen at 40°C, left to cool to RT and re–suspended in 40 μl 5% acetonitrile, 0.1% formic acid on a plate shaker set to 1400 rpm for 5 min. Plates were centrifuged at 4,000 rpm for 10 min and 2 times 12 μl / well of supernatant were transferred into separate 96–well plates (Greiner Bio–One), sealed and stored at 4°C until analyzed by MS / MS.
(§5) Surrogate tryptic peptides were chosen for detection of COL1 (COL1A1), α–SMA (ACTA) and tubulin (TBA1A1) and crude synthetic peptides were purchased from Thermo Fischer. After several rounds of optimization following standard workflows, […] (COL1 / COL1A1), […] (α–SMA / ACTA) and […] LC–MS / MS analysis was performed on a RapidFire™ RF360 system (Agilent Technologies) coupled to an API 5500 (ABSciex) with positive ion electrospray ionization. […] Detection was performed using multiple reaction monitoring (MRM) mode to monitor parent⟶product ion transitions (m / z). […] The source parameters were curtain gas (CUR) nitrogen: 20 psig; collision gas (CAD): 7 psig; ion source gas 1: 50.0 psig; ion source gas 2: 50.0 psig; ion spray voltage (IS): 5500 V; turbo heater temperature (TEM): 600°C; entrance potential (EP): 10V. Peak areas for COL1A1 and ACTA were normalized by dividing by TBA1A peak area.
(§6) To identify compounds with potential to revert differentiated myofibroblasts to fibroblasts the assay procedures were modified. After 24 h starvation, NHLF cells were stimulated with 5 ng / ml TGF–β1 for 24 h. At t = 24 h TGF–β1 was removed and either vehicle (DMSO) or compounds were added and incubated with the cells for a further 72 h.

Experiment [6] relates to COL1 protein in TGF–β1–induced NHLF myofibroblasts. Nature of the experiment: MS/MS COL1, NHLF myofibroblast reversal assay. The experiment is classed as cell-based, human. As to conditions: Homo sapiens, Col1. As to the method:
as §3, §4, §5, §6

The mark [7] stands for this setting: Homo sapiens, Fibroblast, 48 h, NHLF.
Where [8] appears, read: Homo sapiens, NHLF, 5 ng/ml TGF–β1, lysed 48 h after TGF–β1, normalized to tubulin, mean ± SD, read-out: MS / MS α–SMA IC50.
The mark [9] stands for this setting: Homo sapiens, Col1, 48 h, NHLF, 5 ng/ml TGF–β1, lysed 48 h after TGF–β1, normalized to tubulin, mean ± SD, read-out: MS / MS COL1 IC50.
The mark [10] stands for this setting: reversal assay: 24 h 5 ng/ml TGF–β1, washed, 72 h compound, normalized to tubulin, read-out: MS / MS α–SMA IC50.
The mark [11] stands for this setting: reversal assay: 24 h 5 ng/ml TGF–β1, washed, 72 h compound, normalized to tubulin, read-out: MS / MS COL1 IC50.
Setting [12] is: Homo sapiens, NHLF, 5 ng/ml TGF–β1, 48 h, representative experiment of supplementary figure, read-out: IC50 on α–SMA (curve of a single experiment).
Where [13] appears, read: Homo sapiens, Col1, 48 h, NHLF, 5 ng/ml TGF–β1, 48 h, representative experiment of supplementary figure, read-out: IC50 on COL1 (curve of a single experiment).
[14] abbreviates: NHLF pre–stimulated 24 h with 5 ng/ml TGF–β1, representative experiment, S7 Fig D, read-out: IC50, reversal of α–SMA (curve of a single experiment).
[15] abbreviates: Homo sapiens, Col1, NHLF, 5 ng/ml TGF–β1, 48 h, representative experiment of supplementary figure, read-out: IC50 on COL1 (curve of a single experiment).
[16] abbreviates: Homo sapiens, Col1, NHLF, 5 ng/ml TGF–β1, lysed 48 h after TGF–β1, normalized to tubulin, mean ± SD, read-out: MS / MS COL1 IC50.
Setting [17] is: NHLF, 5 ng/ml TGF–β1, lysed 48 h after TGF–β1, normalized to tubulin, mean ± SD, read-out: MS / MS COL1 IC50.
[18] abbreviates: NHLF pre–stimulated 24 h with 5 ng/ml TGF–β1, representative experiment, S7 Fig E, read-out: IC50, reversal of COL1 (curve of a single experiment).

Where two headings read alike, the source gives them in different places.

The term inhibition denotes the change of the read-out against control, counted positive when it falls.

Take `COC(=O)c1ccc2c(c1)NC(=O)/C2=C(\Nc1ccc(N(C)C(=O)CN2CCN(C)CC2)cc1)c1ccccc1` [Nintedanib]: the IC50 was 760 ± 130 nM in experiment [1] (setting [7]); 1400 nM in experiment [2] (Homo sapiens, Fibroblast, 48 h); 500 ± 120 nM in experiment [3] (setting [8]); 1600 nM in experiment [4] (setting [9]); over 10000 nM in experiment [5] (setting [10]); 626 nM in experiment [6] (setting [11]).

As for `CCCCC[C@H](O)/C=C/[C@H]1[C@H](O)CC(=O)[C@@H]1C/C=C\CCCC(=O)O` [PGE2, prostaglandin E2], the IC50 was over 2500 nM in experiment [2] (Homo sapiens, Fibroblast, 48 h); 0.3 nM in experiment [3] (setting [12]); 1.2 ± 1.2 nM in experiment [3] (setting [8]); 1.8 nM in experiment [4] (setting [13]); 4.9 ± 4.4 nM in experiment [4] (setting [9]); 0.82 nM in experiment [5] (setting [14]). Moreover, the results for the IC50 in experiment [5] (setting [10]) and in experiment [6] (setting [11]) were 0.8 nM and 0.4 nM, respectively.

`CC(C)(C)c1ccc(CN(Cc2cccc(OCC(=O)O)c2)S(=O)(=O)c2cccnc2)cc1` [Evatanepag]: the IC50 in experiment [1] (setting [7]) is 82 ± 110 nM; in experiment [2] (Homo sapiens, Fibroblast, 48 h) it was over 50000 nM; in experiment [3] (setting [12]), 5.5 nM; in experiment [3] (setting [8]) it was 26 ± 29 nM; in experiment [4] (setting [15]), 11.4 nM; in experiment [4] (setting [16]), 11 nM. The IC50 in experiment [5] (setting [10]) was 16 nM; in experiment [6] (setting [11]), 24 nM.

Turning to “TGF–β1: transforming growth factor–β1, stimulus of myofibroblast differentiation”, the “EC50 of myofibroblast differentiation in HCA” value in experiment [1] (NHLF, 48 h, mean ± SD (n = 7)) came out at 0.02 ± 0.01 ng/mL. The “α-SMA / tubulin ratio” value in experiment [3] (NHLF, 5 ng/mL TGF-β1) is 0.51 ± 0.06. In experiment [3] (NHLF, 48 hours, MS/MS (n = 8)), the “EC50 of α–SMA protein increase” value amounted to 0.07 ± 0.01 ng/mL. Besides, the “increase of α–SMA protein” value in experiment [3] (NHLF, at 48 hours) is recorded as “about 3 fold”. The “COL1 / tubulin ratio” value in experiment [4] (NHLF, 5 ng/mL TGF-β1) is listed as 0.33 ± 0.07. Moreover, the “EC50 of COL1 protein increase” value in experiment [4] (NHLF, 48 hours, MS/MS (n = 8)) was 0.05 ± 0.01 ng/mL. Besides, the “increase of COL1 protein” value in experiment [4] (NHLF, at 48 hours) is given as “about 3 fold”.

Consider `Cc1cccc(-c2[nH]c(CNc3ccccc3F)nc2-c2ccc3ncnn3c2)n1` [EW–7197], for which the IC50 in experiment [1] (setting [7]) was 80 ± 30 nM; in experiment [1] (NHLF) it was 82 ± 30 nM; in experiment [2] (Homo sapiens, Fibroblast, 48 h), over 25000 nM; in experiment [3] (setting [8]), 51 ± 17 nM; in experiment [4] (setting [9]), 111 ± 30 nM; in experiment [4] (setting [17]) it was 110 ± 30 nM. Moreover, the IC50 came to 51 nM in experiment [5] (setting [14]), 73 ± 31 nM in experiment [5] (setting [10]), 103 nM in experiment [6] (setting [18]) and 82 ± 30 nM in experiment [6] (setting [11]).

On to `O=C(CC1NCCCC1O)Cn1cnc2cc(Br)c(Cl)cc2c1=O` (centres unmarked) [Halofuginone], for which the IC50 is 690 ± 320 nM in experiment [1] (setting [7]); over 46000 nM in experiment [2] (Homo sapiens, Fibroblast, 48 h); 24 nM in experiment [3] (setting [12]); 27 ± 4 nM in experiment [3] (setting [8]); 28 nM in experiment [4] (setting [15]); 27 ± 1 nM in experiment [4] (setting [16]). Also, the IC50 in experiment [5] (setting [14]) was determined as 40 nM; in experiment [5] (setting [10]) it was 102 ± 87 nM; in experiment [6] (setting [18]), 59 nM; in experiment [6] (setting [11]), 116 ± 81 nM.

On to `O=C1CC[C@H](/C=C/[C@@H](O)Cc2ccccc2)N1CCCCCCc1nn[nH]n1` [Merck–19a], for which the IC50 in experiment [3] (NHLF, 5 ng/ml TGF–β1, lysed 48 h after TGF–β1, normalized to tubulin, mean ± SD, read-out: MS / MS α–SMA IC50) turned out to be 108 ± 87 nM; in experiment [4] (setting [17]) it was 17.7 ± 7 nM.

Regarding `C[C@]12CC[C@H](O)C[C@H]1CC[C@@H]1[C@@H]2C[C@@H](O)[C@]2(C)[C@@H](C3=CC(=O)OC3)CC[C@]12O` [Digoxigenin], the “concentrations that reduced cell surface area (CellMask Orange stain)” value in experiment [1] (HCA, NHLF) is at least 1250 nM. The IC50 in experiment [1] (setting [7]) was 220 nM; in experiment [2] (Homo sapiens, Fibroblast, 48 h), over 25000 nM; in experiment [2] it was 19000 nM; in experiment [3] (setting [8]), 38 ± 6 nM; in experiment [4] (setting [16]) it was 85 ± 8 nM; in experiment [5] (setting [10]), 48 nM. In experiment [6] (setting [11]), the IC50 was found to be 54 nM. Besides, the inhibition at 10 µM in experiment [1] (Homo sapiens, Fibroblast) came to 100%.

Take `CCCCC[C@H](O)/C=C/[C@H]1[C@H](O)CC(=O)[C@@H]1CCCCCCC(=O)O` [Alprostadil]: the IC50 in experiment [1] (setting [7]) was 9 nM; in experiment [1] (NHLF) it was 8.6 ± 10 nM; in experiment [2] (Homo sapiens, Fibroblast, 48 h), over 25000 nM; in experiment [2] it was over 50000 nM; in experiment [3] (setting [12]), 0.6 nM; in experiment [3] (setting [8]), 1.9 ± 1.6 nM. Besides, the IC50 in experiment [4] (setting [13]) was 3.2 nM; in experiment [4] (setting [9]) it was 5 ± 1.4 nM; in experiment [5] (setting [10]), 1 nM; in experiment [6] (setting [18]), 2 nM; in experiment [6] (setting [11]), 1.5 ± 0.7 nM. The inhibition at 10 µM in experiment [1] (Homo sapiens, Fibroblast) was found to be 97%. The “effect on basal α–SMA expression” value in experiment [3] (NHLF in the absence of TGF–β1) was “no effect”. Further, the “effect on basal COL1 expression” value in experiment [4] (NHLF in the absence of TGF–β1) is recorded as “no effect”.
